Measurements taken from PubChem BioAssay (NCI).
“And” between values parts separate entries of the source, which are not always exact repeats. Equal entries are not always repeated.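 Tested at 5 concentrations; 48 h exposure; 96-well plates; endpoints linearly interpolated, else capped at highest concentration. GI50: concentration for 50% inhibition of growth. The concentration for full growth arrest is given as TGI.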

Legend:
Experiment in all cases: NCI anticancer screen, dose series, 48 h
[1] = system: HCC-2998 colon
[2] = system: NCI-H460 lung
[3] = system: NCI-H226 lung
[4] = system: SN12C renal
[5] = system: U251 CNS
[6] = system: SF-295 CNS
[7] = system: UACC-257 melanoma
[8] = system: SK-MEL-2 melanoma
[9] = system: ACHN renal
[10] = system: HCT-116 colon

CCCN(CCC)c1ccc(C=O)cc1
GI50 [1]: > 67.5 µM | TGI [1]: > 100 µM | GI50 [2]: > 100 µM | TGI [2]: > 100 µM | GI50 [3]: 30 µM | TGI [3]: > 100 µM | GI50 [4]: > 96.2 µM | TGI [4]: > 100 µM | GI50 [5]: 42 µM | TGI [5]: > 100 µM | GI50 [6]: 34.2 µM | TGI [6]: > 100 µM | GI50 [7]: 35 µM | TGI [7]: 98.2 µM | GI50 [8]: 98.2 µM | TGI [8]: > 100 µM | GI50 [9]: 77.7 µM | TGI [9]: > 100 µM | GI50 [10]: 39.7 µM | TGI [10]: > 100 µM

COc1ccc2c(c1)CCc1cnn(C3OC(COC(C)=O)C(OC(C)=O)C(OC(C)=O)C3OC(C)=O)c1-2 (stereo not drawn)
TGI [1]: > 100 µM | TGI [2]: > 100 µM | TGI [3]: > 100 µM | TGI [4]: > 100 µM | TGI [5]: 65.6 µM | TGI [6]: > 100 µM | TGI [7]: > 100 µM | TGI [8]: > 100 µM | TGI [9]: > 100 µM | TGI [10]: > 100 µM

O=C1Nc2cc(Cl)ccc2Oc2cc(Oc3ccccc3)ccc21
GI50 [1]: 8.8 µM | TGI [1]: > 100 µM | GI50 [2]: 2.91 µM | TGI [2]: 11.7 µM | GI50 [3]: 6.41 µM | TGI [3]: 55.8 µM | GI50 [4]: 5.52 µM | TGI [4]: 71.1 µM | GI50 [5]: 5.26 µM | TGI [5]: 23.8 µM | GI50 [6]: 3.64 µM | TGI [6]: 18.5 µM | GI50 [7]: 16 µM | TGI [7]: > 100 µM | GI50 [8]: 4.99 µM | TGI [8]: 35.7 µM | GI50 [9]: 12.2 µM | TGI [9]: 76.6 µM | GI50 [10]: 4.23 µM | TGI [10]: 32 µM

COc1ccc2nc3cccc([N+](=O)[O-])c3c(NCCN(CCO)CCO)c2c1
GI50 [1]: 0.0137 µM | TGI [1]: 0.0331 µM | GI50 [2]: 0.0104 µM | TGI [2]: 0.0985 µM | GI50 [3]: 0.0822 µM | TGI [3]: 0.536 µM | GI50 [4]: 0.0486 µM | TGI [4]: 0.443 µM | GI50 [5]: 0.021 µM | TGI [5]: 0.136 µM | GI50 [6]: 0.0304 µM | TGI [6]: 0.337 µM | GI50 [7]: 0.0248 µM | TGI [7]: 0.0599 µM | GI50 [8]: 0.0117 µM | TGI [8]: 0.0224 µM | GI50 [9]: 0.0142 µM | TGI [9]: 0.0495 µM | GI50 [10]: 0.0154 µM | TGI [10]: 0.607 µM

O=C(CSc1nc2ccc([N+](=O)[O-])cc2[nH]1)Nc1cccc(Cl)c1
GI50 [1]: 3.17 µM | TGI [1]: 13.6 µM | GI50 [2]: 3.22 µM | TGI [2]: 13.1 µM | GI50 [3]: 2.38 µM | TGI [3]: 9.93 µM | GI50 [4]: 2.46 µM | TGI [4]: 10.8 µM | GI50 [5]: 2.6 µM | TGI [5]: 13.1 µM | GI50 [6]: 2.07 µM | TGI [6]: 6.8 µM | GI50 [7]: 1.57 µM | TGI [7]: 6.68 µM | GI50 [8]: 2 µM | TGI [8]: 5.82 µM | GI50 [9]: 2.46 µM | TGI [9]: 8.57 µM | GI50 [10]: 2.81 µM | TGI [10]: 11.7 µM

CCOC(=O)c1ccc2c(c1)[n+](=O)c(C(=O)c1ccc3ccccc3c1)c(C(F)(F)F)n2[O-]
GI50 [1]: 1.65 µM | TGI [1]: 3.03 µM | GI50 [2]: 1.69 µM | TGI [2]: 3.2 µM | GI50 [3]: 1.74 µM | TGI [3]: 3.57 µM | GI50 [4]: 1.63 µM | TGI [4]: 3.58 µM | GI50 [5]: 1.5 µM | TGI [5]: 2.83 µM | GI50 [6]: 1.78 µM | TGI [6]: 3.17 µM | GI50 [7]: 1.79 µM | TGI [7]: 3.24 µM | GI50 [8]: 1.82 µM | TGI [8]: 3.4 µM | GI50 [9]: 1.47 µM | TGI [9]: 2.93 µM | GI50 [10]: 0.373 µM | TGI [10]: 1.46 µM

COc1ccc(NC(=O)CC/C(CC(=O)c2ccccc2Cl)=N\Nc2nnc(C)n2N)cc1
TGI [1]: > 100 µM | TGI [2]: > 100 µM | TGI [3]: > 100 µM | TGI [4]: > 100 µM | TGI [5]: > 100 µM | TGI [6]: > 100 µM | TGI [7]: > 100 µM | TGI [8]: > 100 µM | TGI [9]: > 100 µM | TGI [10]: > 100 µM

COc1ccc(S(=O)(=O)N2CCN(C(=O)OCc3ccccc3)CC2C(=O)NO)cc1 (stereo not drawn)
GI50 [1]: > 25 µM | TGI [1]: > 25 µM | GI50 [2]: > 25 µM | TGI [2]: > 25 µM | GI50 [3]: > 25 µM | TGI [3]: > 25 µM | GI50 [4]: > 25 µM | TGI [4]: > 25 µM | GI50 [5]: > 25 µM | TGI [5]: > 25 µM | GI50 [6]: > 25 µM | TGI [6]: > 25 µM | GI50 [7]: > 25 µM | TGI [7]: > 25 µM | GI50 [8]: > 25 µM | TGI [8]: > 25 µM | GI50 [9]: 10.6 µM | TGI [9]: > 25 µM | GI50 [10]: > 25 µM | TGI [10]: > 25 µM

NC(=O)c1nnn(Cc2cc(Cl)c(C(=O)c3ccc(Cl)cc3)c(Cl)c2)c1N
GI50 [1]: 6.15 µM | TGI [1]: > 9.09 µM and 17.9 µM | GI50 [2]: 1.04 µM | TGI [2]: > 9.09 µM and 40.2 µM | GI50 [3]: > 9.09 µM | TGI [3]: > 9.09 µM and 55.8 µM | GI50 [4]: > 9.09 µM | TGI [4]: > 9.09 µM and 46.8 µM | GI50 [5]: > 9.09 µM | TGI [5]: > 9.09 µM and 38.1 µM | TGI [6]: > 9.09 µM and 34 µM | GI50 [7]: 6.96 µM | TGI [7]: > 9.09 µM and 33.7 µM | GI50 [8]: > 9.09 µM | TGI [8]: > 44 µM | TGI [9]: > 9.09 µM and 35.1 µM | GI50 [10]: > 9.09 µM | TGI [10]: > 9.09 µM and 35.2 µM

CCCCCCCCCCCCOC1C(CNC(=O)C2OC3OC(C)(C)OC3C2NC(=O)CN2CCN(c3ccccn3)CC2)OC2OC(C)(C)OC21 (stereo not drawn)
GI50 [1]: 6.18 µM | TGI [1]: 19.7 µM | GI50 [2]: 1.77 µM | TGI [2]: 3.38 µM | GI50 [3]: 1.82 µM | TGI [3]: 3.72 µM | GI50 [4]: 1.75 µM | TGI [4]: 3.24 µM | GI50 [5]: 1.86 µM | TGI [5]: 3.46 µM | GI50 [6]: 1.77 µM | TGI [6]: 3.48 µM | GI50 [7]: 1.81 µM | TGI [7]: 3.49 µM | GI50 [8]: 1.65 µM | TGI [8]: 3.32 µM | GI50 [9]: 1.77 µM | TGI [9]: 3.21 µM | GI50 [10]: 1.61 µM | TGI [10]: 3.04 µM

CSC(=S)N/N=C/c1ccccc1
TGI [1]: > 100 µM | TGI [2]: > 100 µM | TGI [3]: > 100 µM | TGI [4]: > 100 µM | TGI [5]: > 100 µM | TGI [6]: > 100 µM | TGI [7]: > 100 µM | TGI [8]: > 100 µM | TGI [9]: > 100 µM | TGI [10]: > 100 µM

Cn1c(=O)nc2n(-c3ccc(F)cc3)c3ccccc3nc-2c1=O
TGI [1]: 49.8 µM | TGI [2]: 80.7 µM | TGI [3]: > 100 µM | TGI [4]: 56.6 µM | TGI [5]: 71.4 µM | TGI [6]: 40.8 µM | TGI [7]: 28.5 µM | TGI [8]: 51.1 µM | TGI [9]: 49.7 µM | TGI [10]: 37.9 µM

C=C1C(=O)O[C@H]2[C@H]1CC/C(C=Nc1ccc(C(F)(F)F)cc1N)=C\CC[C@@]1(C)O[C@@H]21
GI50 [1]: 16 µM | TGI [1]: 34.9 µM | GI50 [2]: 7.07 µM | TGI [2]: 22.7 µM | GI50 [3]: 10 µM | TGI [3]: 32.2 µM | GI50 [4]: 10.1 µM | TGI [4]: 26.6 µM | GI50 [5]: 10.9 µM | TGI [5]: 23.9 µM | GI50 [6]: 13.1 µM | TGI [6]: 26.3 µM | GI50 [7]: 12.3 µM | TGI [7]: 25.8 µM | GI50 [8]: 11.9 µM | TGI [8]: 26.5 µM | GI50 [9]: 6.9 µM | TGI [9]: 22.1 µM | GI50 [10]: 2.38 µM | TGI [10]: 11 µM

COc1ccc(C(=O)/C(=N/Nc2ccccc2)c2ccc(OC)cc2)cc1
TGI [1]: > 100 µM | TGI [2]: > 100 µM | TGI [3]: > 100 µM | TGI [4]: > 100 µM | TGI [5]: > 100 µM | TGI [6]: > 100 µM | TGI [7]: > 100 µM | TGI [8]: > 100 µM | TGI [9]: > 100 µM | TGI [10]: > 100 µM
